Assay results from patent publication US4103011A, “Novel penicillin compounds and process for preparation thereof” (priority 1976, dated 1978).
Converted amounts (≈) assume the structure as drawn. Where a name gives a salt, the structure may show the parent alone. Read-outs that look alike come from different tables or passages of the source.

Tests used:
[1] = system: bacteria (systemic infection); assay: In vivo efficacy against systemic infection, overall conclusions; parameters: species or system male mice (ddY); settings: Table II
Method: (§1) The contents in the vials (No. A and No. C) prepared in Example 17 were each dissolved in deionized water, and injections having various concentrations were prepared.
(§2) Compounds A, B, F, G, H and M were dissolved in deionized water. Compounds C, D, E and J were dissolved in an aqueous solution of sodium carbonate (pH 8-9) to prepare injections of various concentrations.
(§3) Each of the injections was administered to mice under the conditions described below, and the median effective doses (ED50) obtained are shown in Table II.

in vivo = settings: mouse
[2] = system: Pseudomonas aeruginosa No. 12; assay: In vivo efficacy against systemic infection; parameters: species or system male mice (ddY); settings: NO.12, in Mus musculus, twice, about 5 minutes and 6 hours after infection, read-out: ED50 (median effective dose)
Method: as §1
(§4) Compounds A, B, F, G, H and M were dissolved in deionized water.
(§5) Mice: male mice (ddY) weighting about 20g
Pseudomonas aeruginosa No. 12;
(§6) Intraperitoneal infection with 50 to
(§7) of a bacterial suspension in tryptosoy
(§8) twice, about 5 minutes and 6 hours after
Pseudomonas aeruginosa No. 12
(§9) calculated in accordance with the Behrens-Kaerber method [Arch. Exp. Path

Escherichia coli P-5101 [3] = assay: In vivo efficacy against systemic infection; parameters: species or system male mice (ddY); settings: P5101, in Mus musculus, 168 h, twice, about 5 minutes and 6 hours after infection, read-out: ED50 (median effective dose)
Method: as §1, §4, §5, §6, §7, §8, §9

[4] = system: Staphylococcus aureus No. 50774; assay: In vivo efficacy against systemic infection; parameters: species or system male mice (ddY); settings: NO.50774, in Mus musculus, 336 h, sc, twice, about 5 minutes and 6 hours after infection, read-out: ED50 (median effective dose)
Method: as §1, §2, §3, §5
Staphylococcus aureus No. 50774;
Intravenous infection with 50 to 100
LD50 (about 5 × 10^8cells/mouse) of a
bacterial suspension in saline.
as §8
Staphylococcus aureus No. 50774 14 days
The numerals in the table show ED50 (mg/kg). ED50 values were
as §9

[5] = system: Pseudomonas aeruginosa No.12; assay: In vitro antibacterial activity (MIC); format: cell-based; settings: Pseudomonas aeruginosa No.12; read-out: minimum inhibitory concentration (MIC)
Source text: (§10) In vitro antibacterial activity against 20 strains of bacteria
(§11) The numerals in the table show minimum inhibitory concentrations (MIC)

[6] = system: Streptococcus pyogenes 65A; assay: In vitro antibacterial activity (MIC); format: cell-based; settings: Streptococcus pyogenes 65A; read-out: minimum inhibitory concentration (MIC)
Source text: as §10, §11

[7] = system: Salmonella typhimurium S-9; assay: In vitro antibacterial activity (MIC); format: cell-based; settings: Salmonella enterica, read-out: minimum inhibitory concentration (MIC)
Source text: as §10, §11

Proteus rettgeri P-2503 = assay: In vitro antibacterial activity (MIC); format: cell-based; settings: Providencia rettgeri, P2503; Proteus rettgeri P-2503; read-out: minimum inhibitory concentration (MIC)
Source text: as §10, §11

[8] = system: Pseudomonas aeruginosa Tsuchijima; assay: In vitro antibacterial activity (MIC); format: cell-based; settings: Pseudomonas aeruginosa Tsuchijima; read-out: minimum inhibitory concentration (MIC)
Source text: as §10, §11

[9] = system: Staphylococcus aureus 209P JC-1; assay: In vitro antibacterial activity (MIC); format: cell-based; settings: Staphylococcus aureus 209P JC-1; read-out: minimum inhibitory concentration (MIC)
Source text: as §10, §11

[10] = system: Streptococcus faecalis P-2473; assay: In vitro antibacterial activity (MIC); format: cell-based; settings: Enterococcus faecalis
Source text: as §10, §11

Proteus morganii Kono = assay: In vitro antibacterial activity (MIC); format: cell-based; settings: Morganella morganii, read-out: minimum inhibitory concentration (MIC)
Source text: as §10, §11

[11] = system: Escherichia coli NIHJ JC-2; assay: In vitro antibacterial activity (MIC); format: cell-based
Source text: as §10, §11

[12] = system: Salmonella enteritidis No. 1891; assay: In vitro antibacterial activity (MIC); format: cell-based; settings: Salmonella enterica, read-out: minimum inhibitory concentration (MIC)
Source text: as §10, §11

[13] = system: Staphylococcus aureus No. 50774; assay: In vitro antibacterial activity (MIC); format: cell-based
Source text: as §10, §11

[14] = system: Klebsiella pneumoniae No. 13; assay: In vitro antibacterial activity (MIC); format: cell-based; settings: Klebsiella pneumoniae No. 13; read-out: minimum inhibitory concentration (MIC)
Source text: as §10, §11

Escherichia coli P-5101 [15] = assay: In vitro antibacterial activity (MIC); format: cell-based; settings: Escherichia coli, P5101, read-out: minimum inhibitory concentration (MIC)
Source text: as §10, §11

Proteus mirabilis P-2381 = assay: In vitro antibacterial activity (MIC); format: cell-based
Source text: as §10, §11

[16] = system: Serratia mercescens IFO 3736; assay: In vitro antibacterial activity (MIC); format: cell-based
Source text: as §10, §11

[17] = system: Corynebacterium pyogenes C-21; assay: In vitro antibacterial activity (MIC); format: cell-based; settings: Rhodococcus (subgen. Prescottella) equi, C21; Corynebacterium pyogenes C-21; read-out: minimum inhibitory concentration (MIC)
Source text: as §10, §11

Escherichia coli P-140a = assay: In vitro antibacterial activity (MIC); format: cell-based
Source text: as §10, §11

[18] = system: Enterobacter cloacae P-2540; assay: In vitro antibacterial activity (MIC); format: cell-based
Source text: as §10, §11

Shigella flexneri 2a = assay: In vitro antibacterial activity (MIC); format: cell-based; settings: read-out: minimum inhibitory concentration (MIC)
Source text: as §10, §11

[19] = system: Shigella flexneri 4a P-330; assay: In vitro antibacterial activity (MIC); format: cell-based; settings: 4AP330, read-out: minimum inhibitory concentration (MIC)
Source text: as §10, §11

20 strains of bacteria = assay: In vitro antibacterial activity, overall conclusions; format: cell-based
Source text: as §10

[20] = P2473, read-out: minimum inhibitory concentration (MIC)
[21] = Salmonella enteritidis No. 1891
[22] = Staphylococcus aureus No. 50774, read-out: minimum inhibitory concentration (MIC)
[23] = P2381, Proteus mirabilis P-2381, read-out: minimum inhibitory concentration (MIC)
[24] = P2540, Enterobacter cloacae P-2540, read-out: minimum inhibitory concentration (MIC)
[25] = Escherichia coli, NIHJJC2, read-out: minimum inhibitory concentration (MIC)
[26] = Serratia, IFO3736, read-out: minimum inhibitory concentration (MIC)

Row | Structure (SMILES) | ED50 ([2]; iv) [mg/kg] | ED50 ([2]; sc) [mg/kg] | ED50 (Escherichia coli P-5101 [3]; iv) [mg/kg] | ED50 (Escherichia coli P-5101 [3]; sc) [mg/kg] | ED50 [4] [mg/kg] | MIC [5] [µg/mL] | MIC [6] [µg/mL] | MIC ([7]; Salmonella typhimurium S-9) [µg/mL] | MIC (Proteus rettgeri P-2503) [µg/mL] | MIC [8] [µg/mL] | MIC [9] [µg/mL] | MIC [10, 20] [µg/mL] | MIC (Proteus morganii Kono; Proteus morganii Kono) [µg/mL] | MIC [12, 21] [µg/mL] | MIC [13, 22] [µg/mL] | MIC [14] [µg/mL] | MIC (Escherichia coli P-5101 [15]) [µg/mL] | MIC [17] [µg/mL] | MIC (Shigella flexneri 2a) [µg/mL] | MIC [19] [µg/mL] | other results
1 | CN1CCN(c2ncc3c(=O)c(C(=O)N[C@@H](C(=O)N[C@@H]4C(=O)N5[C@@H]4SC(C)(C)[C@@H]5C(=O)O)c4ccc(O)cc4)c[nH]c3n2)CC1 [Compound A, D-α-[5,8-Dihydro-2-(4-methyl-1-piperazinyl)-5-oxopyrido[2,3-d]pyrimidine-6-carboxamido]-p-hydroxybenzylpenicillin sodium salt] | 2.6 | 3.6 | 0.7 | 1 | 3.7 | 1.56 | < 0.1 | 0.2 | 6.25 | 0.39 | 1.56 | 6.25 | 3.13 | 0.2 | 3.13 | 6.25 | 0.39 | 0.78 | 0.78 | 0.78 | antibacterial activity in vivo (in words) [1]: almost comparable; LD50 at 168 h (in vivo; iv): 1120 mg/kg; selectivity ratio (in vivo; iv): 432; LD50 at 168 h (in vivo; sc): 1500 mg/kg; selectivity ratio (in vivo; sc): 417; MIC ([11]; NIHJJC2, Escherichia coli NIHJ JC-2, read-out: minimum inhibitory concentration (MIC)): 0.78 µg/mL; MIC (Proteus mirabilis P-2381; [23]): 3.13 µg/mL; MIC ([16]; IFO3736, Serratia mercescens IFO 3736, read-out: minimum inhibitory concentration (MIC)): 3.13 µg/mL; minimum inhibitory concentration (MIC) (Escherichia coli P-140a): 6.25 µg/mL; MIC [18, 24]: 3.13 µg/mL
2 | CCn1cc(C(=O)O)c(=O)c2cnc(N3CCNCC3)nc21 [Compound J, 5,8-Dihydro-8-ethyl-2-(1-piperazinyl)-5-oxopyrido[2,3-d]pyrimidine-6-carboxylic acid] | 42.7 | 37.7 | 4.6 | 6.3 | > 50 | 25 (≈ 82.4 µM) | > 100 |  | 6.25 (≈ 20.6 µM) | 12.5 (≈ 41.2 µM) | 12.5 (≈ 41.2 µM) | > 200 |  |  |  | 6.25 (≈ 20.6 µM) | 3.13 (≈ 10.3 µM) | 25 (≈ 82.4 µM) | 3.13 (≈ 10.3 µM) | 1.56 (≈ 5.14 µM) | antibacterial activity (in words) (20 strains of bacteria; against Gram-positive bacteria): inferior antibacterial activity against Gram-positive bacteria; antibacterial activity (in words) (20 strains of bacteria; against Gram-positive bacteria, listed as Pipemidic acid): does not show any marked antibacterial activity against Gram-positive bacteria; MIC ([7]; TYPHIMURIUM): 3.13 µg/mL (≈ 10.3 µM); MIC (Proteus morganii Kono): 3.13 µg/mL (≈ 10.3 µM); MIC [11, 25]: 1.56 µg/mL (≈ 5.14 µM); MIC ([12]; ENTERITIDIS): 1.56 µg/mL (≈ 5.14 µM); MIC ([13]; Staphylococcus aureus, NO.50774, read-out: minimum inhibitory concentration (MIC)): 25 µg/mL (≈ 82.4 µM); MIC (Proteus mirabilis P-2381; Proteus mirabilis, P2381, read-out: minimum inhibitory concentration (MIC)): 3.13 µg/mL (≈ 10.3 µM); MIC [16, 26]: 6.25 µg/mL (≈ 20.6 µM); MIC (Escherichia coli P-140a; Escherichia coli, read-out: minimum inhibitory concentration (MIC)): 3.13 µg/mL (≈ 10.3 µM); MIC ([18]; Enterobacter cloacae, P2540, read-out: minimum inhibitory concentration (MIC)): 1.56 µg/mL (≈ 5.14 µM)
3 | CC1(C)S[C@@H]2[C@H](NC(=O)[C@H](N)c3ccc(O)cc3)C(=O)N2[C@H]1C(=O)O [Compound M, D-α-Amino-p-hydroxybenzylpenicillin sodium salt] |  | > 200 | 3.2 | 3.4 | 0.34 | > 200 | 0.025 | 0.78 | 50 | 200 | 0.1 |  | 200 | 0.39 | 0.1 | 200 | 6.25 | 0.39 | 6.25 | 25 | antibacterial activity (in words) (20 strains of bacteria; Ampicillin-resistant strains): does not exhibit antibacterial activity; antibacterial activity (in words) (20 strains of bacteria; E. coli P-140a, Klebsiella pneumonia, Enterobacter cloacae, Pseudomonas aeruginosa, Serratia marcescens): substantially ineffective; antibacterial activity (in words) (20 strains of bacteria; bacteria of the genus Pseudomonas): substantially ineffective; MIC ([10]; P2473, Streptococcus faecalis P-2473, read-out: minimum inhibitory concentration (MIC)): 0.78 µg/mL; MIC [11, 25]: 6.25 µg/mL; MIC (Proteus mirabilis P-2381; [23]): 1.56 µg/mL; MIC [16, 26]: 50 µg/mL; minimum inhibitory concentration (MIC) (Escherichia coli P-140a): > 200 µg/mL; MIC [18, 24]: > 200 µg/mL
